Patent US20080318783A1, “Use of abscisic acid seed treatment to enhance corn emergence after early planting” (priority 2007, published 2008)

Key:
Type in all cases: in vivo, Zea mays
Corn seed (Hughes 5813) = experiment: Seed treatment with ABA and stimulators of guanylate cyclase, cold damage during germination
Description: Corn seed (Hughes 5813) was treated with sodium ABA salt as described under Example 3. ABA rates of 0 and 20 ug/seed were applied either alone or with compounds that are selective and potent activators of soluble guanylate cyclase in animal and plant cells. These agent are YC-1 (3-(5′-hydroxymethyl-2′-furyl)-1-benzylindazole) and BAY 41-2272 (5-cyclopropyl-2-[1-(2-fluoro-benzyl)-1H-pyrazolo[3,4-b]pyridine-3-yl]pyrimidin-4-ylamine).

[1] = test system: Corn ("Hughes High" variety) seedlings; experiment: Dip treatment of 2-day old corn seedlings, cold damage after 0° C. for 4 days (rolled towels); details: for Adventitious root growth (%) / Destroyed roots (%) / Lethal shoot (%): ~30 s, 0° C. 4 days, scored 3 days later
Description: Corn (“Hughes High” variety) was germinated in the dark in moist rolled towels at 25° C. for 2 days. Seedlings were selected that were undamaged, with a radicle of 1-2 cm and a coleoptile of 0.5 to 1 cm in length. Solutions in water with 5% ethanol were made with different concentrations of ABA and PBI-429. The seedlings were dipped in the solutions with gentle agitation for approximately 30 seconds and drained. The seedlings were placed on moist towels, gently rolled and held at 18° C. for 16 hours. Then the rolled towels were packed in ice for four days. After the chilling period, the rolled towels were blotted to remove excess water and transferred to a 25° C. chamber. Seedling damage was scored 3 days later. Lethal injury of the shoot consisted of either destruction of the mesocotyl or splitting or reduction of the coleoptile judged sufficient to prevent emergence of seedlings in the field (although this trial was conducted in towels). Seedlings with destroyed roots had no living primary or seminal roots. Seedlings with adventitious root growth from the mesocotyl were counted.

Corn seed (Hughes 1883) [2] = experiment: Soil test, standard delayed chilling (severe chilling after 2 days germination); details: for Strong seedlings (%) / Viable seedlings (%): soil, 2 days germination, then 1° C. 4 days
Description: (§1) Corn seed (Hughes 1883) was treated with ABA ammonium salt as described under Example 2. ABA rates of 0, 5, 10 and 25 g/cwt were applied.
(§2) The seed was planted in plastic boxes containing lkg of typical agricultural silt loam. Fifty seeds were planted 3 cm deep in each plastic box, and the soil in the box was adjusted to 23% soil moisture (wet-weight basis). Two replications of the experiment were performed. Two kinds of cold tolerance assays were conducted, “standard delayed chilling” and “chilling at spiking.” The boxes for the standard delayed chilling were […] and transferred to 1° C. for four days. Boxes for the “chilling at spiking” treatment were allowed to germinate at 25° C. until the coleoptiles were first observed emerging from the soil. This common point of development varied from 3 to 6 days depending upon the dose of ABA. Then these boxes too were transferred to the 1° C. chamber for four days.
(§3) After the cold treatment the boxes were moved to the 25° C. chamber for one week. The soil was washed from the seedlings and each seedling scored for damage as described under Example 2. “Viable seedlings” were seedlings capable of surviving under typical field conditions.

[3] = test system: "Hughes High" hybrid corn seed; experiment: Seed treatment with ABA, cold damage (ice, 4 days) during germination in moist towels; details: 48 h at 25° C., then ice 4 days
Description: ABA was applied to corn seed at 0, 1, 5, 25 and 125 g/cwt (seed weight basis). The ABA was first converted to the sodium salt to render it soluble before making up the experimental seed treatment slurries. The treatments were made up in 3 ml samples of an aqueous slurry. All of the seed treatment slurry samples contained CF-Clear film-forming agent and Colorcoat Red (Becker Underwood), each at loz/cwt, and 0.167 oz/cwt Maxim XL fungicide (Syngenta). The slurry application volume was 20 oz/cwt (cwt=100 lbs of seed). One hundred gram samples of “Hughes High” hybrid corn seed were treated with the experimental slurries using a Hege 11 seed treater with a six-inch bowl.
Three replications of 50 seeds each were planted were planted in moist towels and germinated in the dark at 25° C. for 48 hours. The rolled towels were then packed in ice for 4 days. After the cold period the towels were blotted and germination continued until the seedlings were large enough so that each seedling could be scored. In the case of the 125 g rate, this took 2 weeks. Seedling organs were scored independently for damage to the primary root, seminal roots, mesocotyl, coleoptile and the scutellar node.

Corn seed (Hughes 1883) [4] = experiment: Soil test, chilling at spiking (chilling at point of initial emergence); details: for Strong seedlings (%) / Viable seedlings (%): soil, 1° C. 4 days applied at initial emergence (spiking)
Description: as §1, §2, §3

[5] = Bay 41-2272 1 μg/seed, ABA 0 μg/seed
[6] = Bay 41-2272 10 μg/seed, ABA 0 μg/seed
[7] = ABA ammonium salt seed treatment 5 g/cwt
[8] = ABA ammonium salt seed treatment 10 g/cwt
[9] = ABA ammonium salt seed treatment 25 g/cwt
[10] = ABA (sodium salt) seed treatment 1 g/cwt
[11] = ABA (sodium salt) seed treatment 5 g/cwt
[12] = ABA (sodium salt) seed treatment 25 g/cwt
[13] = ABA (sodium salt) seed treatment 125 g/cwt
[14] = ABA (sodium salt) 20 μg/seed alone, sGC activator 0 μg/seed

Nc1nc(-c2nn(Cc3ccccc3F)c3ncccc23)ncc1C1CC1 [Bay 41-2272, 5-cyclopropyl-2-[1-(2-fluoro-benzyl)-1H-pyrazolo[3,4-b]pyridine-3-yl]pyrimidin-4-ylamine]
Percent Strong Seedlings (Corn seed (Hughes 5813); [5]): 1%
Percent Viable Seedlings (Corn seed (Hughes 5813); [5]): 65%
Percent Strong Seedlings (Corn seed (Hughes 5813); [6]): 0%
Percent Viable Seedlings (Corn seed (Hughes 5813); [6]): 64%

OCc1ccc(-c2nn(Cc3ccccc3)c3ccccc23)o1 [YC-1, 3-(5′-hydroxymethyl-2′-furyl)-1-benzylindazole]
Percent Strong Seedlings (Corn seed (Hughes 5813); YC-1 1 μg/seed, ABA 0 μg/seed): 0%
Percent Viable Seedlings (Corn seed (Hughes 5813); YC-1 1 μg/seed, ABA 0 μg/seed): 44%
Percent Strong Seedlings (Corn seed (Hughes 5813); YC-1 10 μg/seed, ABA 0 μg/seed): 4%
Percent Viable Seedlings (Corn seed (Hughes 5813); YC-1 10 μg/seed, ABA 0 μg/seed): 46%

S-(+)-abscisic acid [ABA]
Adventitious root growth (%) ([1]; ABA dip 10 ppm): 7%
Destroyed roots (%) ([1]; ABA dip 10 ppm): 86%
Lethal shoot (%) ([1]; ABA dip 10 ppm): 62%
Adventitious root growth (%) ([1]; ABA dip 100 ppm): 20%
Destroyed roots (%) ([1]; ABA dip 100 ppm): 84%
Lethal shoot (%) ([1]; ABA dip 100 ppm): 47%
Adventitious root growth (%) ([1]; ABA dip 1000 ppm): 89%
Destroyed roots (%) ([1]; ABA dip 1000 ppm): 48%
Lethal shoot (%) ([1]; ABA dip 1000 ppm): 11%
Protection of seedlings from cold injury (in words) ([1]; applied to the seedling prior to cold stress): can provide protection from injury, and stimulate adventitious root growth
Strong seedlings (%) (Corn seed (Hughes 1883) [2]; [7]): 53%
Viable seedlings (%) (Corn seed (Hughes 1883) [2]; [7]): 99.5%
Strong seedlings (%) (Corn seed (Hughes 1883) [2]; [8]): 96%
Viable seedlings (%) (Corn seed (Hughes 1883) [2]; [8]): 99.5%
Strong seedlings (%) (Corn seed (Hughes 1883) [2]; [9]): 100%
Viable seedlings (%) (Corn seed (Hughes 1883) [2]; [9]): 100%
Protection from cold in field soil (in words) (Corn seed (Hughes 1883) [2]; delivered as a seed treatment): protection of germinating seeds and young seedlings in field soil
Seedlings with lethal root injury (%) [3, 10]: 23.3%
Seedlings with lethal shoot injury (%) [3, 10]: 19.3%
Strong seedlings (%) [3, 10]: 18.0%
Seedlings with lethal root injury (%) [3, 11]: 0.7%
Seedlings with lethal shoot injury (%) [3, 11]: 8.0%
Strong seedlings (%) [3, 11]: 88.7%
Seedlings with lethal root injury (%) [3, 12]: 0.0%
Seedlings with lethal shoot injury (%) [3, 12]: 15.5%
Strong seedlings (%) [3, 12]: 95.3%
Seedlings with lethal root injury (%) [3, 13]: 0.7%
Seedlings with lethal shoot injury (%) [3, 13]: 11.4%
Strong seedlings (%) [3, 13]: 81.3%
Percent Strong Seedlings (Corn seed (Hughes 5813); [14]): 67%
Percent Viable Seedlings (Corn seed (Hughes 5813); [14]): 100%
Strong seedlings (%) (Corn seed (Hughes 1883) [4]; [7]): 0%
Viable seedlings (%) (Corn seed (Hughes 1883) [4]; [7]): 5%
Strong seedlings (%) (Corn seed (Hughes 1883) [4]; [8]): 18%
Viable seedlings (%) (Corn seed (Hughes 1883) [4]; [8]): 62%
Strong seedlings (%) (Corn seed (Hughes 1883) [4]; [9]): 10%
Viable seedlings (%) (Corn seed (Hughes 1883) [4]; [9]): 23%
Protection of seedlings from cold damage (in words) (Corn seed (Hughes 1883) [4]; seed treatment, chilling at spiking): results not only from delay of germination, but from induction of cold tolerance in the tissue
